Target: T1, OxsB + OxsA (OxsA/OxsB) (Priestia megaterium, UniProt O24770)
T1 sequence (O24770 1-744): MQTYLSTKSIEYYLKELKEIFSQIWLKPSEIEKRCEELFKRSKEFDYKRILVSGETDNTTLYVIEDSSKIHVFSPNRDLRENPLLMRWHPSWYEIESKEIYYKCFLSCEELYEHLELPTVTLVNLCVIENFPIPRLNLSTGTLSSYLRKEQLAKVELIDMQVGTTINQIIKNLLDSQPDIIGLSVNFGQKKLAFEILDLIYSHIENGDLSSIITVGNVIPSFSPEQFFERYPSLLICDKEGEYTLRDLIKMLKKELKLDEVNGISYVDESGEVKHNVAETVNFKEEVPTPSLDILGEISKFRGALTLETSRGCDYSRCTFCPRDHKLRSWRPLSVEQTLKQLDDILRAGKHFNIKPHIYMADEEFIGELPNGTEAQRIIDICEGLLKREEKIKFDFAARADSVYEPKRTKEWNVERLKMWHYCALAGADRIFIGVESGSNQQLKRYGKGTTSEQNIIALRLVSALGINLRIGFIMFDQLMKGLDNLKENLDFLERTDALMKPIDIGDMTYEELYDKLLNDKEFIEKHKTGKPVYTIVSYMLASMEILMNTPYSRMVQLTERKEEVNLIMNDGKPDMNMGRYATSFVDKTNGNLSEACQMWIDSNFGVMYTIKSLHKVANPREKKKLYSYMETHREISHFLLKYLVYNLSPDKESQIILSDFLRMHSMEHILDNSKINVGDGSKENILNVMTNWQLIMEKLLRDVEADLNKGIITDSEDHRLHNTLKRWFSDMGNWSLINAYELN
Test: HPLC product detection, MS and NMR
Assay type: biochemical
Details: AdoMet, HO-Cbl, MgCl2, DTT, NADPH / methyl viologen

For Nc1ncnc2c1ncn2[C@H]1C[C@H](O)[C@@H](COP(=O)(O)O)O1 [dAMP], the “HPLC product detection, MS and NMR” value was “identify dAMP, dADP and dATP as OXT-A precursors”.

From publication PMC5398914 (Nature, 2017)
